Results from US12649735B2 (HAIHE BIOPHARMA CO., LTD., priority 2019, dated 2026).

How the values were obtained:
[1] = tested on: BRD4-BD2; settings: cited from earlier work
[2] = tested on: acute leukemia tumors; settings: mice, administered orally, 60 mg/kg per day; cited from earlier work
[3] = biological target: T1, bromodomain protein BRD4 BD1 (Homo sapiens, UniProt O60885); assay: HTRF in vitro assay, inhibitory activity against BRD4 BD1; type: binding; settings: BRD4(1) 30 nM in final system
T1 construct: The proteins BRD4 BD1/BD2 used in the experiment were purchased from Active Motif Company (Cat. No. 31380/31446); purchased Active Motif 31380
Protocol: In this example, the half inhibitory activity (IC50) of the compounds of the present invention against the bromodomain protein BRD4 BD1 was determined.
(§1) The inhibitory activity of the compound against BRD4 BD1 was determined by using Homogeneous Time-Resolved Fluorescence (HTRF).
(§2) The proteins BRD4 BD1/BD2 used in the experiment were purchased from Active Motif Company (Cat. No. 31380/31446); Streptavidin XL-665 (#610SAXLA) and EPIgeneous Binding Domain Kit A (#62BDAPEG) were purchased from Cisbio Bioassays Company, [Lys(5,8,12,16)Ac]H4(1-21)-biotin (#64989), and [Lys(5,8,12,16)Ac]H4(1-25) were products of AnaSpec company; OTX015 and ABBV-075 were purchased from SelleckChem. 384 Well ProxiPlate (#6008280) was purchased from PerkinElmer. The multifunctional microplate reader used for the experimental was a product of PerkinElmer, model: Envision 2104. The experimental water was Millipore-Q pure water.
(§3) 10 mM of stock solution of compound in DMSO was diluted to 1 mM with DMSO and stored, and then diluted 10 times with Binding Domain dilution buffer (purchased from Cisbio Bioassays) for use (the concentration of DMSO in the final system was […]), 1:5 gradient dilution, a total of 5 concentrations.
(§4) 4. Test Method: 1 Batch, 2 Duplicate Wells
(§5) • 1) 5 μL of test compound was transferred to 45 μL of Binding Domain dilution buffer. • 2) 2 μL of 10× compound (4 μL Binding Domain dilution buffer: positive control; 6 μL enzyme buffer (purchased from Cisbio Bioassays): negative control) was transferred to the reaction plate. • 3) 4 μL of 5×BRD4(1) or BRD4(2) (30 nM in final system) was added to the reaction plate. • 4) 4 μL of 5×[Lys(5,8,12,16)Ac]H4(1-21)-biotin was added to the reaction plate, and the plate was covered with a film, and incubated at 37° C. for 30 min. • 5) A detection mixture of SA-XL665 (2×) and anti-H3K9me0-Eu(K) (2×) was prepared in detection buffer (purchased from Cisbio Bioassays). • 6) 10 μL of detection mixture (2×) was added to each well, and incubated for 3 h at room temperature, and the mp value was read using a multi-plate reader Envision. The parameters were set as follows.

[4] = biological target: T2, bromodomain protein BRD4 BD2 (Homo sapiens, UniProt O60885); assay: HTRF in vitro assay, inhibitory activity against BRD4 BD2; type: binding; settings: BRD4(2) 30 nM in final system
T2 construct: The proteins BRD4 BD1/BD2 used in the experiment were purchased from Active Motif Company (Cat. No. 31380/31446); purchased Active Motif 31446
Protocol: as §1, §2, §3, §4, §5

| SMILES | selectivity (BD2/BD1) [1] | inhibits acute leukemia tumors [2] | IC50 [3] | IC50 [4] |
| --- | --- | --- | --- | --- |
| CCNC(=O)c1cc2c(-c3cc(C(C)(C)O)ccc3Oc3c(C)cc(F)cc3C)cn(C)c(=O)c2[nH]1 [Abbv744] | > 100 times | – | – | – |
| Cc1noc2c1-c1ccccc1C(c1ccc(Cl)cc1)=N[C@H]2CC(N)=O [CPI-0610] | – | 41% | – | – |
| CC(c1ccc(F)cc1)c1cn(C)c(=O)c2[nH]c(-c3cnn(C(CO)CN4CCN(C)CC4)c3)cc12 (stereo not drawn) [Compound A62, 4-(1-(4-fluorophenyl)ethyl)-2-(1-(1-hydroxy-3-(4-methylpiperazin-1-yl)propan-2-yl)-1H-pyrazol-4-yl)-6-methyl-1,6-dihydro-7H-pyrrolo[2,3-c]pyridin-7-one] | – | – | 0.1 to 1 µM | ≤ 0.01 µM |
| CC(c1ccc(N2CCN(C)CC2)cc1)c1cn(C)c(=O)c2[nH]c(-c3cnn(C4COC4)c3)cc12 (stereo not drawn) [Compound A63, 6-methyl-4-(1-(4-(4-methylpiperazin-1-yl)phenyl)ethyl)-2-(1-(oxetan-3-yl)-1H-pyrazol-4-yl)-1,6-dihydro-7H-pyrrolo[2,3-c]pyridin-7-one] | – | – | 0.1 to 1 µM | 0.01 to 0.1 µM |
| CC(c1ccc(Cl)cc1)c1cn(C)c(=O)c2[nH]c(C(=O)Nc3cnn(C)c3)cc12 (stereo not drawn) [Compound A64, 4-(1-(4-chlorophenyl)ethyl)-6-methyl-N-(1-methyl-1H-pyrazol-4-yl)-7-oxo-6,7-dihydro-1H-pyrrolo[2,3-c]pyridin-2-carboxamide] | – | – | 0.1 to 1 µM | 0.01 to 0.1 µM |
| Cn1cc(C(CO)c2ccccc2)c2cc(-c3cnn(C4COC4)c3)[nH]c2c1=O (stereo not drawn) [Compound A67, 4-(2-hydroxy-1-phenethyl)-6-methyl-2-(1-(oxetan-3-yl)-1H-pyrazol-4-yl)-1,6-dihydro-7H-pyrrolo[2,3-c]pyridin-7-one] | – | – | 0.1 to 1 µM | 0.01 to 0.1 µM |
| Cn1cc(Oc2ccccc2)c2cc(-c3cnn(C4COC4)c3)[nH]c2c1=O [Compound A68, 6-methyl-2-(1-(oxetan-3-yl)-1H-pyrazol-4-yl)-4-phenoxy-1,6-dihydro-7H-pyrrolo[2,3-c]pyridin-7-one] | – | – | 0.1 to 1 µM | 0.01 to 0.1 µM |
| Cc1ccc(C(C)(C)c2cn(C)c(=O)c3[nH]c(-c4cnn(C5COC5)c4)cc23)cc1 [Compound A69, 6-methyl-2-(1-(oxetan-3-yl)-1H-pyrazol-4-yl)-4-(2-(p-tolyl)propan-2-yl)-1,6-dihydro-7H-pyrrolo[2,3-c]pyridin-7-one] | – | – | 0.1 to 1 µM | 0.01 to 0.1 µM |
| Cn1cc(C(c2ccccc2)c2ccccc2)c2cc(-c3cnn(C4COC4)c3)[nH]c2c1=O [Compound A71] | – | – | 0.1 to 1 µM | 0.01 to 0.1 µM |
| CC(c1ccc(O)cc1)c1cn(C)c(=O)c2[nH]c(-c3cnn(C4COC4)c3)cc12 (stereo not drawn) [Compound A72, 4-(1-(4-hydroxyphenyl)ethyl)-6-methyl-2-(1-(oxetan-3-yl)-1H-pyrazol-4-yl)-1,6-dihydro-7H-pyrrolo[2,3-c]pyridin-7-one] | – | – | 0.1 to 1 µM | 0.01 to 0.1 µM |
| COc1ccc(C(C)c2cn(C)c(=O)c3[nH]c(-c4cnn(C5COC5)c4)cc23)cc1 (stereo not drawn) [Compound A73, 4-(1-(4-methoxyphenyl)ethyl)-6-methyl-2-(1-(oxetan-3-yl)-1H-pyrazol-4-yl)-1,6-dihydro-7H-pyrrolo[2,3-c]pyridin-7-one] | – | – | 0.1 to 1 µM | ≤ 0.01 µM |
| CC(c1cccc(F)c1F)c1cn(C)c(=O)c2[nH]c(-c3cnn(C4COC4)c3)cc12 (stereo not drawn) [Compound A74, 4-(1-(2,3-difluorophenyl)ethyl)-6-methyl-2-(1-(oxetan-3-yl)-1H-pyrazol-4-yl)-1,6-dihydro-7H-pyrrolo[2,3-c]pyridin-7-one] | – | – | 0.1 to 1 µM | ≤ 0.01 µM |
| CC(c1cccc(Cl)c1F)c1cn(C)c(=O)c2[nH]c(-c3cnn(C4COC4)c3)cc12 (stereo not drawn) [Compound A75, 4-(1-(3-chloro-2-fluorophenyl)ethyl)-6-methyl-2-(1-(oxetan-3-yl)-1H-pyrazol-4-yl)-1,6-dihydro-7H-pyrrolo[2,3-c]pyridin-7-one] | – | – | 0.1 to 1 µM | ≤ 0.01 µM |
